Measured values taken from ChEMBL document CHEMBL4354827, “Discovery of Novel, Potent, Brain-Permeable, and Orally Efficacious Positive Allosteric Modulator of α7 Nicotinic Acetylcholine Receptor [4-(5-(4-Chlorophenyl)-4-methyl-2-propionylthiophen-3-yl)benzenesulfonamide]: Structure-Activity Relationship and Preclinical Characterization” (J Med Chem, 2020).

Experiments:
Rattus norvegicus [1] = assay: Memory enhancement effect in time-delay induced Wistar rat model of amnesia assessed as increase in novel object discrimination index at 3 mg/kg, po administered as single dose and measured on day 9 by novel object recognition test (reference value: 0.03); format: functional
[2] = Oral bioavailability in Wistar rat at 10 mg/kg after 0.25 to 144 hrs by LC-MS/MS analysis; format: ADME, organism-based; settings: in vivo
Rattus norvegicus [3] = assay: Memory enhancement effect in scopolamine-induced Wistar rat model of amnesia assessed as exploration time for familiar object in retention trial at 0.5 mg/kg, po for 7 days and measured on day 8 by novel object recognition test (reference value: 8.59 sec); format: functional
Rattus norvegicus [4] = assay: Improvement in social recognition time delay-induced Sprague-Dawley rat model of amnesia assessed as increase in reduction in social investigation time at 1 mg/kg, po administered as single dose prior to 1 hr training and measured after 30 mins (reference value: 0.39%); format: functional; design: scale not given: the % may be the effect or the level left
Rattus norvegicus [5] = assay: Memory enhancement effect in time-delay induced Wistar rat model of amnesia assessed as exploration time for object1 in acquisition trial at 1 mg/kg, po administered as single dose and measured on day 8 by novel object recognition test (reference value: 13.95 sec); format: functional
[6] = Protein binding in mouse plasma at 5 uM incubated for 16 hrs under shaking condition by LC/MS/MS based rapid equilibrium dialysis method; format: ADME, cell-free; settings: read-out: PPB (converted)
[7] = Half life in human at 7.5 to 50 mg administered for 14 days; format: ADME; settings: in vivo
[8] = Tmax in Beagle dog at 1 mg/kg, iv after 0.083 to 144 hrs by LC-MS/MS analysis; format: ADME, organism-based, Canis lupus familiaris; settings: in vivo
Rattus norvegicus [9] = assay: Memory enhancement effect in time-delay induced Wistar rat model of amnesia assessed as exploration time for object1 in acquisition trial at 3 mg/kg, po administered as single dose and measured on day 8 by novel object recognition test (reference value: 13.95 sec); format: functional
Rattus norvegicus [10] = assay: Memory enhancement effect in scopolamine-induced Wistar rat model of amnesia assessed as increase in novel object discrimination index at 0.5 mg/kg, po administered as single dose and measured on day 9 by novel object recognition test (reference value: 0.21); format: functional
Rattus norvegicus [11] = assay: Memory enhancement effect in scopolamine-induced Wistar rat model of amnesia assessed as exploration time for novel object in retention trial at 0.05 mg/kg, po for 7 days and measured on day 8 by novel object recognition test (reference value: 12.09 sec); format: functional
Rattus norvegicus [12] = assay: Memory enhancement effect in scopolamine-induced Wistar rat model of amnesia assessed as increase in exploration time for novel object in retention trial at 0.05 mg/kg, po administered as single dose and measured on day 9 by novel object recognition test (reference value: 12.09 sec); format: functional
[13] = Drug level in Sprague-Dawley rat plasma at 0.15 mg/kg, po for 7 days; format: ADME, organism-based
[14] = Drug level in scopolamine-induced Sprague-Dawley rat plasma at 0.5 mg/kg, po for 7 days; format: ADME, organism-based
[15] = AUC(0 to infinity) in human at 7.5 to 100 mg; format: ADME
[16] = Drug level in scopolamine-induced Sprague-Dawley rat brain at 0.5 mg/kg, po for 7 days; format: ADME, organism-based; settings: read-out: Drug uptake
Rattus norvegicus [17] = assay: Memory enhancement effect in time-delay induced Wistar rat model of amnesia assessed as increase in discrimination index at 0.15 mg/kg, po for 7 days and measured on day 8 by novel object recognition test (reference value: 0.12); format: functional
[18] = Tmax in Wistar rat brain at 10 mg/kg, po after 1 to 144 hrs by LC-MS/MS analysis; format: ADME, organism-based
Rattus norvegicus [19] = assay: Memory enhancement effect in time-delay induced Wistar rat model of amnesia assessed as increase in exploration time for novel object in retention trial at 1 mg/kg, po administered as single dose and measured on day 9 by novel object recognition test (reference value: 12.06 sec); format: functional
[20] = AUClast in BALB/c mouse at 1 mg/kg, iv after 0.083 to 144 hrs by LC-MS/MS analysis; format: ADME, organism-based; design: dose 1 mg/kg, time upper 144 hr, time lower 0.083 hr, route intravenous; settings: in vivo
[21] = Drug level in scopolamine-induced Sprague-Dawley rat plasma at 0.05 mg/kg, po for 7 days; format: ADME, organism-based
Cytochrome P450 2C9 = Cytochrome P450 2C9 (Homo sapiens, UniProt P11712); assay: Inhibition of CYP2C9 (unknown origin) up to 10 uM; format: ADME
Cytochrome P450 2C9, sequence (P11712 whole entry): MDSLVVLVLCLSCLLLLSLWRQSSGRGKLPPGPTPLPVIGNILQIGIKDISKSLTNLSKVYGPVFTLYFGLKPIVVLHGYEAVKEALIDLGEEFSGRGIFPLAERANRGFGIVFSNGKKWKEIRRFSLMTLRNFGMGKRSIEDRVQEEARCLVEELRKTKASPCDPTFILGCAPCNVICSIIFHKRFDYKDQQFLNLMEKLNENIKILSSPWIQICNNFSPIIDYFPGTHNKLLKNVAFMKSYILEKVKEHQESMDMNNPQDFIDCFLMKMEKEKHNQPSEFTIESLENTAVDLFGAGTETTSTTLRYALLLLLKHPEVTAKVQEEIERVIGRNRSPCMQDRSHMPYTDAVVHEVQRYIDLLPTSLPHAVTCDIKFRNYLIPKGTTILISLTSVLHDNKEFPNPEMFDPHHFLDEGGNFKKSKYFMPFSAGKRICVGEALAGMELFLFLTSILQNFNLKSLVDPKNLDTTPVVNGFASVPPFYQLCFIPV

Rattus norvegicus [22] = assay: Memory enhancement effect in time-delay induced Wistar rat model of amnesia assessed as exploration time for object1 in acquisition trial at 0.15 mg/kg, po for 7 days and measured on day 8 by novel object recognition test (reference value: 13.73 sec); format: functional
Rattus norvegicus [23] = assay: Improvement in social recognition time delay-induced Sprague-Dawley rat model of amnesia assessed as reduction in recognition index at 1 mg/kg, po administered as single dose prior to 1 hr training and measured after 30 mins (reference value: 1); format: functional
Rattus norvegicus [24] = assay: Memory enhancement effect in scopolamine-induced Wistar rat model of amnesia assessed as exploration time for object1 in acquisition trial at 0.05 mg/kg, po for 7 days and measured on day 8 by novel object recognition test (reference value: 16.11 sec); format: functional
Rattus norvegicus [25] = assay: Improvement in social recognition time delay-induced Sprague-Dawley rat model of amnesia assessed as reduction in recognition index at 0.05 mg/kg, po for 7 days and measured on day 9 (reference value: 1.05); format: functional
Rattus norvegicus [26] = assay: Improvement in social recognition scopolamine-induced Sprague-Dawley rat model of amnesia assessed as reduction in recognition index at 0.15 mg/kg, po for 7 days measured after 24 hrs (reference value: 0.93); format: functional
[27] = Drug concentration in Wistar rat plasma at 10 mg/kg, po after 4 hrs by LC-MS/MS analysis; format: ADME, organism-based
[28] = Drug concentration in Wistar rat plasma at 10 mg/kg, po after 8 hrs by LC-MS/MS analysis; format: ADME, organism-based
Rattus norvegicus [29] = assay: Memory enhancement effect in scopolamine-induced Wistar rat model of amnesia assessed as exploration time for object1 in acquisition trial at 0.5 mg/kg, po for 7 days and measured on day 8 by novel object recognition test (reference value: 16.11 sec); format: functional
[30] = Unbound brain-to-plasma concentration ratio in Wistar rat at 10 mg/kg, po after 1 hr by LC-MS/MS analysis; format: ADME, organism-based; settings: read-out: K(p,uu,brain)
Rattus norvegicus [31] = assay: Improvement in social recognition scopolamine-induced Sprague-Dawley rat model of amnesia assessed as increase in reduction in social investigation time at 3 mg/kg, po administered as single dose prior to 1 hr training and measured after 30 mins (reference value: 9.81%); format: functional; design: scale not given: the % may be the effect or the level left
[32] = AUClast in Beagle dog at 1 mg/kg, iv after 0.083 to 144 hrs by LC-MS/MS analysis; format: ADME, organism-based, Canis lupus familiaris; design: dose 1 mg/kg, time 0.083-144 hr, route intravenous; settings: in vivo
[33] = Drug metabolism in monkey liver microsomes assessed as metabolic rate at 1 uM preincubated for 5 mins followed by NADPH addition after 30 mins by LC-MS/MS analysis; format: ADME, Macaca mulatta, Microsome; settings: rhesus monkey, 0.5 h
Rattus norvegicus [34] = assay: Memory enhancement effect in time-delay induced Wistar rat model of amnesia assessed as increase in discrimination index at 0.05 mg/kg, po for 7 days and measured on day 8 by novel object recognition test (reference value: 0.12); format: functional

CCC(=O)c1sc(-c2ccc(Cl)cc2)c(C)c1-c1ccc(S(N)(=O)=O)cc1
Activity_index (Rattus norvegicus [1]): 0.48 | bioavailability [2]: 74% | Time (Rattus norvegicus [3]): 6.63 s | Activity (Rattus norvegicus [4]): 31.73% | Time (Rattus norvegicus [5]): 23.61 s | fraction unbound at 16 h, 5 µM [6]: 0.0116 | half-life [7]: 48 to 80.9 h | Tmax [8]: 0.25 h | Time (Rattus norvegicus [9]): 25.56 s | Activity_index (Rattus norvegicus [10]): 0.45 | Time (Rattus norvegicus [11]): 14.65 s | Time (Rattus norvegicus [12]): 14.65 s | concentration at 168 h [13]: 320 nM | concentration at 168 h [14]: 580 nM | AUC(0-inf) [15]: 261 to 24100 ng·h/mL | concentration at 168 h [16]: 2130 nM | Activity_index (Rattus norvegicus [17]): 0.3 | Tmax [18]: 4 h | Time (Rattus norvegicus [19]): 25.93 s | AUC(0-t) [20]: 11 µM·h | concentration at 168 h [21]: 60 nM | inhibition (INH) (Cytochrome P450 2C9): Not Active | Time (Rattus norvegicus [22]): 10.95 s | Activity_index (Rattus norvegicus [23]): 0.68 | Time (Rattus norvegicus [24]): 16.07 s | Activity_index (Rattus norvegicus [25]): 0.81 | Activity_index (Rattus norvegicus [26]): 0.44 | concentration at 4 h [27]: 850 nM | concentration at 8 h [28]: 830 nM | Time (Rattus norvegicus [29]): 13.94 s | Kp uu at 1 h [30]: 0.56 | Activity (Rattus norvegicus [31]): 55.09% | AUC(0-t) [32]: 47 µM·h | Drug metabolism [33]: 0.03 nmol/min/mg | Activity_index (Rattus norvegicus [34]): 0.27
